The record followed here is patent US6379655B1, “Photoprotective/cosmetic compositions comprising aminoamidine sunscreens” (Societe l'Oreal S.A., priority 1999, dated 2002).

The nature of data set [1]: UV absorption (sunscreening properties) in ethanol. The class given is physicochemical. From the text: This compound had the following sunscreening properties:
spectral domain where ε is greater than 10,000: 297 to 377 nm.

The nature of data set [2]: photostability protocol for cosmetic UV filters. The class given is physicochemical. Particulars: protocol of Inter. J. Cosm. Sci., 1996, 18, 167-177. From the text: Loss of 5% after subjecting to the photostability protocol (according to BERST G., GONZPNBACH H., CHRIST R., MARTIN R., DEFLANDRE A., MASCOTTO R. E., JOLLEY J. D. R., LOWELL W., PELZER R., STIEHM T., Inter. J. Cosm.Sci., 1996, 18, 167-177. Proposed protocol for determination of photostability Part I: cosmetic UV filters).

In data set [1], `N/C(=N\N=C\c1ccccc1O)c1cnccn1` [Compound 52, N′-[(E)-2-hydroxyphenylmethylidene]pyrazinecarbohydrazonamide] gave an E1% of 1010 and a λmax of 354.2 nm.

As for `N/C(=N\N=C\c1ccoc1)c1cnccn1` [Compound 70, N′-[(E)-3-furylmethylidene]-2-pyrazinecarbohydrazonamide], in data set [1], the E1% is recorded as 832 and the λmax turned out to be 335 nm.

Take `N/C(=N\N=C\c1cccnc1)c1cnccn1` [Compound 76, N′-[(E)-3-pyridinylmethylidene]-2-pyrazinecarbohydrazonamide]: in data set [1], the E1% was 1016 and the λmax came to 341 nm. Besides, the “Loss after subjecting to the photostability protocol” value in data set [2] is reported as 5%.
